In ChEMBL document CHEMBL5137028, “Progress and Challenges in Targeting the SARS-CoV-2 Papain-like Protease” (J Med Chem, 2022):

System: SARS-CoV-2
Test: Antiviral activity against SARS-CoV-2 nCoV-2019BetaCoV/Wuhan/WIV04/2019 infected in African green monkey Vero E6 cells assessed as viral growth inhibition pretreated for 1 hr followed by infection at MOI of 0.01 and replacement of fresh medium containing compound measured after 24 hrs by plaque reduction assay
Type: functional, organism-based
Conditions: Severe acute respiratory syndrome coronavirus 2, nCoV-2019BetaCoV/Wuhan/WIV04/2019, Vero C1008

Compound	EC50 [µM]
C[C@H]1COC2=C1C(=O)C(=O)c1c2ccc2c1CCCC2(C)C [CRYPTOTANSHINONE]	0.7
COCC[n+]1c2c(n(Cc3cnccn3)c1C)C(=O)c1ccccc1C2=O [SEPANTRONIUM BROMIDE]	0.17
Cc1coc2c1C(=O)C(=O)c1c-2ccc2c(C)cccc12 [TANSHINONE I]	2.26
